In patent publication US20260144805A1, “CANNABIDIOL COMPOSITIONS FOR USE IN THE TREATMENT OF NEURODEGENERATIVE AND NEUROLOGICAL DISORDERS” (JAZZ PHARMACEUTICALS RESEARCH UK LIMITED, priority 2022, published 2026):

Test system: valproic acid-induced autism spectrum disorder (ASD) mouse model
Test: Valproic acid-induced ASD model, social behavior (Example 6, Table P)
Assay type: in vivo
Set-up: key: +: improvement; Ø: no change; −: not tested
Details: 0.125 mg/kg I.P.
Source text: The main objective of the following study was to assess the effect of the drug substance (DS) of Example 1 in ameliorating autism-like behavior in valproic acid-induced autism spectrum disorder (ASD) mouse model (FIGS. 19A-B).

SMILES: Cc1nc2n(c(=O)c1CCN1CCC(c3noc4cc(F)ccc34)CC1)CCCC2 [Risperidone]
- Adult active social behavior (control beside DS): Ø
- Juvenile play behavior (control beside DS): Ø
- Adult active social behavior (control beside sCBD): +
- Juvenile play behavior (control beside sCBD): +
- Adult active social behavior (control beside sCBD-2): Ø
- Juvenile play behavior (control beside sCBD-2): Ø
